Assay results reported in PMC10060569 (Frontiers in Pharmacology, 2023).

How the values were obtained:
L191A/S15V-hP2X3R = target: T1, L191A/S15V-hP2X3R (Homo sapiens, UniProt P56373, L191A/S15V); experiment: TEVC of ATP-induced currents, L191A/S15V-hP2X3R mutant in X. laevis oocytes; assay type: cell-based
T1 construct: expressed in transfected cells; host or cells: Xenopus laevis oocytes (cRNA injection)
T1 sequence (P56373 1-397 S15V/L191A): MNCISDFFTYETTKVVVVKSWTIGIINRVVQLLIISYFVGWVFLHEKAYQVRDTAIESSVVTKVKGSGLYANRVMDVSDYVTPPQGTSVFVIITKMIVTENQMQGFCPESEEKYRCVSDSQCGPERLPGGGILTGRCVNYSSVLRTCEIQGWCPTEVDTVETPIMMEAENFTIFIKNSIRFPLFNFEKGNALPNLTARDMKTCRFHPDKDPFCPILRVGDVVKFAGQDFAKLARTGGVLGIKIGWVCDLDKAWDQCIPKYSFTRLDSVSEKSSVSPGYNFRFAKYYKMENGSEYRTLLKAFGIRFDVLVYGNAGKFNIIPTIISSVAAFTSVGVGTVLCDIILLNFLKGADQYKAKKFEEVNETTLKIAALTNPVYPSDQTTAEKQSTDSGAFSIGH
Method: Ion currents mediated by P2X receptors were evoked by the indicated concentration of ATP or α,β-meATP and were recorded 1 or 2 days after cRNA injection at ambient temperature at a holding potential of −60 mV by two-electrode voltage clamp (TEVC) as previously described ([Hausmann et al., 2006]). Calcium-free ORi^− solution (90 mM NaCl, 1 mM KCl, 2 mM MgCl2, 10 mM HEPES, pH 7.4) was used to avoid bias due to calcium-activated chloride channels (CaCC) endogenously expressed in X. laevis oocytes ([Miledi, 1982]; [Methfessel et al., 1986]). For recordings of wt-hP2X7R, the composition of the ORi^− solution was modified according to protocols described previously and contained 100 mM NaCl, 2.5 mM KCl, 1 mM MgCl2, 5 mM HEPES, pH 7.4 ([Klapperstück et al., 2000]). The oocytes were continuously superfused with ORi^− by gravity flow (5–10 ml/min). The agonists ATP or α,β-meATP and the investigated NSAIDs were diluted in ORi^− on the day of the recording. The following agonist concentrations were used for the different P2X subtypes: 1 μM ATP (hP2X1R mutant, hP2X3R, rP2X3R, S^15V-hP2X3R, and S^15V-rP2X3R); 10 μM ATP (hP2X2R and hP2X4R); 300 μM free ATP^4- (hP2X7R); and 1 μM α,β-meATP (hP2X2/3R). […]
In the case of fast-desensitizing P2XR subtypes (P2X1R and P2X3R), ATP is applied five times in repetition, and the ATP-induced current amplitude in the presence (after pre-incubation) of the antagonist (fourth application) is compared to the arithmetic mean of flanking control ATP-induced current amplitudes in the absence of the antagonist (third and fifth ATP application). […] The correction factor was calculated as the ratio of the fourth ATP-induced current amplitude to the third amplitude (Eq. 3) when the experiment was performed in the absence of the antagonist. […] Since the magnitude of the run-down varies from day to day and batch to batch of oocytes, the correction factor was determined on each day of the experiments and was calculated as the arithmetic mean of several recordings (at least 3–5 and on average 5) on each day. […]

S15V-rP2X3R = target: T2, S15V-rP2X3R (Rattus norvegicus, UniProt P49654, S15V); parameters: method as in Obrecht et al., 2019; conditions: previous screening; ref Obrecht et al., 2019; cited from earlier work
T2 construct: expressed in transfected cells; host or cells: Xenopus laevis oocytes (cRNA injection)
T2 sequence (P49654 1-397 S15V): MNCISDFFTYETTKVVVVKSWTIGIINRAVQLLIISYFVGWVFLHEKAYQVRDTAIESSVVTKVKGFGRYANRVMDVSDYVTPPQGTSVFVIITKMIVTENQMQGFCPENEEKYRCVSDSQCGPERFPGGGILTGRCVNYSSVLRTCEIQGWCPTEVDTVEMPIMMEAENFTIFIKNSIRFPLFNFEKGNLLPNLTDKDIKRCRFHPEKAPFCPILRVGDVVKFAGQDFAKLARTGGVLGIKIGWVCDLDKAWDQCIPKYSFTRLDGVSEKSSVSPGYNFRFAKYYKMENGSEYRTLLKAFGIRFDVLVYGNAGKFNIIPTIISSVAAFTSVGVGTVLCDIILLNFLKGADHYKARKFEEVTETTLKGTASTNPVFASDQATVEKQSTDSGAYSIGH

O=C(O)Cc1ccccc1Nc1c(Cl)cccc1Cl [Diclofenac, diclofenac] gave an inhibition at 3 µM (L191A/S15V-hP2X3R; read-out: % inhibition of 10 µM ATP-induced currents by 3 µM diclofenac) of 7.7%, an inhibition at 10 µM (L191A/S15V-hP2X3R; read-out: % inhibition of 10 µM ATP-induced currents by 10 µM diclofenac) of 18.4% and an inhibition at 30 µM (L191A/S15V-hP2X3R; read-out: % inhibition of 10 µM ATP-induced currents by 30 µM diclofenac) of 37.3%. The “inhibition of S15V-rP2X3R-mediated currents in screening” value (S15V-rP2X3R) was over 80%.
